Values quoted from earlier work in the CATMoS acute toxicity set (Mansouri et al. 2021).
Where “and” joins values, the source holds several entries; their conditions need not be identical. Equal values may be shown once.

Experiment: rat acute oral toxicity
Details: in vivo

Row | Structure (SMILES) | LD50
1 | COP(N)(=S)Oc1ccc(C(C)(C)C)cc1Cl (stereo not drawn) | 820 mg/kg
2 | CCCSP(=S)(OC)SCCC | 16 mg/kg
3 | O=C(CCCN1CCC(n2c(=S)[nH]c3ccccc32)CC1)c1ccc(F)cc1 | 232 mg/kg
4 | CCc1cc(=O)c2ccccc2o1 | 1400 mg/kg
5 | COc1ccc2c(c1)c(CC(=O)Oc1cccc(C(F)(F)F)c1)c(C)n2C(=O)c1ccc(Cl)cc1 | 307 mg/kg
6 | CCOP(=O)(OCC)OC(=C(Cl)Br)c1ccc(Cl)cc1Cl | 19.3 mg/kg
7 | CCOC(C1=NCCCN1)c1ccc(Cl)cc1 (stereo not drawn) | 875 mg/kg
8 | ClCc1c(Cl)cc(Cl)cc1Cl | 3080 mg/kg
9 | COC(=O)C1C2CC3c4[nH]c5cc(OC)ccc5c4CCN3CC2CC(OC2CCCCO2)C1OC (stereo not drawn) | 173 mg/kg
10 | ClC1=C(Cl)[C@]2(Cl)[C@@H]3C[C@@H](Cl)[C@@H](Cl)[C@@H]3[C@@]1(Cl)C2(Cl)Cl (racemic) | 500 mg/kg
11 | O=C1c2ccccc2-c2ccc3c4c(ccc1c24)-c1c(Br)ccc(Br)c1C3=O | 3570 mg/kg
12 | C=CC(=O)OCCN(CC)CC | 770 mg/kg
13 | O=c1c2ccccc2nc2n1OCC2 | 395 mg/kg
14 | CC(C)OP(=S)(CCl)Sc1ccc(F)cc1 (stereo not drawn) | 39 mg/kg
15 | CC(N)(Cc1ccc(O)c(O)c1)C(=O)O (stereo not drawn) | 5710 mg/kg
16 | CC(C)OC(Cl)=C(Cl)C(Cl)=C(Cl)Cl | 1210 mg/kg
17 | c1cn[nH]c1 | 1010 mg/kg
18 | C=CC(=O)OCCOC(=O)c1ccc(C(=O)O)cc1C(=O)O | 3190 mg/kg
19 | CC[N+](CC)(CC)CCOC(=O)C(C1CCCC1)C1CCCC1 | 780 mg/kg
20 | CN(C)c1ccc(N=Nc2cccc(Br)c2)cc1 | 13000 mg/kg
21 | CC(C)c1ccc(CO)cc1 | 1020 mg/kg
22 | O=C(Cl)CCCCCCCCC(=O)Cl | 400 mg/kg
23 | COc1nccnc1NS(=O)(=O)c1ccc(N)cc1 | 2740 mg/kg
24 | C=CCOC(=O)CC(C)C | 230 mg/kg
25 | COP(=S)(OC)SCn1nc(Cl)c(C)cc1=O | 65 mg/kg

Row | Structure (SMILES) | LD50
26 | O=C(O)Cc1c(-c2ccccc2)c(-c2ccccc2)nn1-c1ccccc1 | 13 mg/kg
27 | NCCCNCCNCCCN | 1200 mg/kg
28 | CC(C)(O)CCc1ccccc1 | 2200 mg/kg
29 | CC1CO1 (stereo not drawn) | 380 mg/kg
30 | N#CCCN(CCN)CCN | 4550 mg/kg
31 | Clc1ccc(C(Cn2ccnc2)OCc2c(Cl)cccc2Cl)c(Cl)c1 (stereo not drawn) | 5600 mg/kg
32 | CCOP(=S)(OCC)OCCS(=O)(=O)CC | 90 mg/kg
33 | Cc1cc(NC(=O)c2ccccc2O)n(-c2ccccc2)n1 | 1320 mg/kg
34 | C/C=C/C=C/C=O | 300 mg/kg
35 | O=C(c1ccc(Cl)cc1)c1ccccc1-c1ncc[nH]1 | 600 mg/kg
36 | Cc1ccc(N=CN(C)SN(C)C=Nc2ccc(C)cc2C)c(C)c1 | 300 mg/kg
37 | CN(C)C(=O)N(C)N=O | 240 mg/kg
38 | CC[N+](CC)(CC)CCC(O)(c1ccccc1)C1CCCCC1 (stereo not drawn) | 1100 mg/kg
39 | CCCCC(CC)COC(=O)c1ccccc1C(=O)OCc1ccccc1 (stereo not drawn) | 60000 mg/kg
40 | O=C(OCCOCCN1CCCCC1)N1c2ccccc2Sc2cccnc21 | 530 mg/kg
41 | CCN(CC)CCc1nc(-c2ccccc2)no1 | 1650 mg/kg
42 | CNC(=O)Oc1cc(C)cc(C(C)C)c1 | 35 mg/kg
43 | CCC(C)c1cc([N+](=O)[O-])cc([N+](=O)[O-])c1OC(C)=O (stereo not drawn) | 60 mg/kg
44 | COc1c(Cl)ccc2[nH]c(C(F)(F)F)nc12 | 3.15 mg/kg
45 | CC1=CC=C(C(C)C)CC1 | 1680 mg/kg
46 | CCOC(C1=NCCCN1)c1ccccc1 (stereo not drawn) | 1540 mg/kg
47 | CCN(CC)C(=S)N/N=C/c1ccc([N+](=O)[O-])o1 | 750 mg/kg
48 | OC1CCc2ccccc21 (stereo not drawn) | 620 mg/kg
49 | CN(C)CCOc1ccccc1Cc1ccccc1 | 1470 mg/kg and 1400 mg/kg
50 | CC(Oc1cccc2ccccc12)C(N)=NO (stereo not drawn) | 90 mg/kg

Row | Structure (SMILES) | LD50
51 | CC1=NN(c2ccccc2)C(=O)C1C=O (stereo not drawn) | 716 mg/kg
52 | COc1cc2c(cc1OC)-c1c(OC)c(OC)cc3c1[C@H](C2)N(C)CC3 | 545 mg/kg
53 | CC1Cc2cc(C(=O)CCc3ccccc3)ccc2O1 (stereo not drawn) | 2150 mg/kg
54 | Cc1ccc2ccccc2n1 | 1230 mg/kg
55 | Cc1cc(C(=O)Nc2ccccc2)c(C)o1 | 64 mg/kg
56 | CC1C(=NOC(=O)N(C)SC(Cl)(Cl)Cl)SCC(=O)N1C (stereo not drawn) | 3.54 mg/kg
57 | CCCCCCCCCCCCOCCOCCOCCOS(=O)(=O)O | 1820 mg/kg
58 | CCCN1C(=O)C2C3C=C(C(O)(c4ccccc4)c4ccccn4)C(C3=C(c3ccccc3)c3ccccn3)C2C1=O (stereo not drawn) | 34.5 mg/kg
59 | COC(C)OC | 6500 mg/kg
60 | CCCC(=O)c1ccc2c(c1)N(CCCN1CCN(C)CC1)c1ccccc1S2 | 413 mg/kg
61 | C#CCOc1ccccc1OC(=O)NC | 60 mg/kg
62 | ClC1=C(Cl)C2(Cl)C(CBr)CC1(Cl)C2(Cl)Cl (stereo not drawn) | 12500 mg/kg
63 | CCCCC(C)(C)O | 820 mg/kg
64 | C=C(C)C#N | 120 mg/kg
65 | C=C(C)CCl | 848 mg/kg
66 | CCCCCCCCCCCC[N+](C)(C)CC(O)CCl (stereo not drawn) | 1070 mg/kg
67 | CC(=O)C=Cc1ccccc1 | 2030 mg/kg
68 | COC(=O)c1ccccc1N=NN(C)C | 13 mg/kg
69 | O=C1NS(=O)(=O)c2ccccc21 | 14200 mg/kg
70 | CC(C)(C)c1cc(Cl)cc(Sc2cc(Cl)cc(C(C)(C)C)c2O)c1O | 6100 mg/kg
71 | O=[N+]([O-])c1cc(Cl)c(N=Nc2ccc(N3CCS(=O)(=O)CC3)cc2)c(Cl)c1 | 3200 mg/kg
72 | [2H]C([2H])([2H])N(COC(C)=O)N=O | 120 mg/kg
73 | CC(C)N1CCCC1=O | 2900 mg/kg
